Data published in US20180147301A1, “SOLID ORAL COMPOSITION CONTAINING DYES” (COSMO TECHNOLOGIES LTD., priority 2016, published 2018).

How the values were obtained:
[1] = biological target: T1, CYP 2C8 (Homo sapiens, UniProt P10632)
T1 sequence (P10632 1-490): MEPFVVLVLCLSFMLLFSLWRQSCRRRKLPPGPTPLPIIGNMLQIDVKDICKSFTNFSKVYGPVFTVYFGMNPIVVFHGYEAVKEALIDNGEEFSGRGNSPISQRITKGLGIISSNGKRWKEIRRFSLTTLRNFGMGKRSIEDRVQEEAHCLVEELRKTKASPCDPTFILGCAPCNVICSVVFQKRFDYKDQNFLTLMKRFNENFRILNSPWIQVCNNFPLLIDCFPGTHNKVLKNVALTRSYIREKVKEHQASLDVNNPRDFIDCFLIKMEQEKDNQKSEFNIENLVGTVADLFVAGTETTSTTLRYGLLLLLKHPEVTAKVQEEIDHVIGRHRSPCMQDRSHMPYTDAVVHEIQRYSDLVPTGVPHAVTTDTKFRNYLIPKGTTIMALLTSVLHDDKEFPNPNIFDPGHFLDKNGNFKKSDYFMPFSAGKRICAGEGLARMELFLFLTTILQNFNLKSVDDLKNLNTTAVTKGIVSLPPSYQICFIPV

[2] = biological target: CYP 2C19 (Homo sapiens, UniProt P33261)
CYP 2C19, sequence (P33261 whole entry): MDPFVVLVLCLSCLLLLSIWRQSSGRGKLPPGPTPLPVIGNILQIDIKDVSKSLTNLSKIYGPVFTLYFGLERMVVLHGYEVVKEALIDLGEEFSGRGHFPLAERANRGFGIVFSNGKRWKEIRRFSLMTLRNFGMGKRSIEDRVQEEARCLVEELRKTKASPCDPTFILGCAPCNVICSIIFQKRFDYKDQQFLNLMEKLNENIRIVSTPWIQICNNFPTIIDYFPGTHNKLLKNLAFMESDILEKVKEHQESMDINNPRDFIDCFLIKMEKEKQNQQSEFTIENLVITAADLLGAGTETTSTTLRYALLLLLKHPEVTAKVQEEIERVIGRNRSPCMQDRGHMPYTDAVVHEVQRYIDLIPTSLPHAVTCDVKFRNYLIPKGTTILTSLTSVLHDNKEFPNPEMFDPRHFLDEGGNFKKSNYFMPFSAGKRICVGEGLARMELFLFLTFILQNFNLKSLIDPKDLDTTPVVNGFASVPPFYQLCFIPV

[3] = biological target: CYP 2C9 (Homo sapiens, UniProt P11712)
CYP 2C9, sequence (P11712 whole entry): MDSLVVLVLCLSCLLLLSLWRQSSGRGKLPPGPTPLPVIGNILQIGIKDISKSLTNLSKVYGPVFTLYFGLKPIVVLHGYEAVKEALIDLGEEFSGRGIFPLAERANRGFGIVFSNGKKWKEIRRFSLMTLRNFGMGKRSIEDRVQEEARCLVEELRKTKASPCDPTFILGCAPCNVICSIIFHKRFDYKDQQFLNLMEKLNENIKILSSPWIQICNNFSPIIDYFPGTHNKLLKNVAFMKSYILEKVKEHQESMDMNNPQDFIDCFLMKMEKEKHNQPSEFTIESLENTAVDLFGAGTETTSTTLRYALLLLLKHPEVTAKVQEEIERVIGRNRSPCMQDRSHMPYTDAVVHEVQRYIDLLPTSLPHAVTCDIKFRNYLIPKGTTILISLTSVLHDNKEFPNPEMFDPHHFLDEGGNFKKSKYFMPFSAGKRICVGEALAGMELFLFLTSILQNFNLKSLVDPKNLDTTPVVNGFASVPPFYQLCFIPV

[4] = biological target: T2, P-gp (Homo sapiens, UniProt P08183); assay: in vitro transporter substrate study; assay type: in vitro ADME
T2 sequence (P08183 whole entry): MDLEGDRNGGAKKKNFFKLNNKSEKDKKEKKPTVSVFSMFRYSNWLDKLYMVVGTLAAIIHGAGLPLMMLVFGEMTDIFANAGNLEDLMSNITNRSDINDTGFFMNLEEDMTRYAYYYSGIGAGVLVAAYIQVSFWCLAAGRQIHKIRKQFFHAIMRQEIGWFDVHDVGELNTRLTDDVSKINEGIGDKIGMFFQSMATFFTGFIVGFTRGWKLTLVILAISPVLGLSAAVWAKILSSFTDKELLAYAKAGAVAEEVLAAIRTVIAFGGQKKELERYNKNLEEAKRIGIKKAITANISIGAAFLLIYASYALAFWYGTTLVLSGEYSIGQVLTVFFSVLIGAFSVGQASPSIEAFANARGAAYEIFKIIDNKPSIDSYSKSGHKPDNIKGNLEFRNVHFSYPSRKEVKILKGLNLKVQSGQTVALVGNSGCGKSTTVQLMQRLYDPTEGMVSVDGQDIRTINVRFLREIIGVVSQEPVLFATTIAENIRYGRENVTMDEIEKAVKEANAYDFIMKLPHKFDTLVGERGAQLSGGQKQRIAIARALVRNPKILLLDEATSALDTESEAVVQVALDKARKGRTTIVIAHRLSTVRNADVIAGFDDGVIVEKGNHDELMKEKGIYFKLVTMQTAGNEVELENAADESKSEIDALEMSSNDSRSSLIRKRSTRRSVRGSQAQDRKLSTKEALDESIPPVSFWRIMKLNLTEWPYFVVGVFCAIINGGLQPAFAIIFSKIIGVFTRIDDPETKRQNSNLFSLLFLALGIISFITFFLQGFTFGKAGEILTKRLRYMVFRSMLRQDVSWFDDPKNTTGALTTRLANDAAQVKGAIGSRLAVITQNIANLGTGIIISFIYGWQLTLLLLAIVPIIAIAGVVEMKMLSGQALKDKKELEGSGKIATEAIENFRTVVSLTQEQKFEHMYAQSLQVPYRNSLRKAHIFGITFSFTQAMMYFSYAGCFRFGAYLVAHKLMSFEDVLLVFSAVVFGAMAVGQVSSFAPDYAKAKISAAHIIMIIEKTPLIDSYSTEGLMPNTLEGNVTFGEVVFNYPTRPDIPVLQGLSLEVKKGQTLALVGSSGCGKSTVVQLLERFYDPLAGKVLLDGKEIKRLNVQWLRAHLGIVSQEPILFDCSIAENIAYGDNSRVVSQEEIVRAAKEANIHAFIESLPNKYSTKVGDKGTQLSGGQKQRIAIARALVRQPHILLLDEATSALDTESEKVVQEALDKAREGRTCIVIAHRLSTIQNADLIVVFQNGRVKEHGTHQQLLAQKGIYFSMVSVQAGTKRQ

[5] = biological target: T3, CYP 2B6 (Homo sapiens, UniProt P20813)
T3 sequence (P20813 1-491): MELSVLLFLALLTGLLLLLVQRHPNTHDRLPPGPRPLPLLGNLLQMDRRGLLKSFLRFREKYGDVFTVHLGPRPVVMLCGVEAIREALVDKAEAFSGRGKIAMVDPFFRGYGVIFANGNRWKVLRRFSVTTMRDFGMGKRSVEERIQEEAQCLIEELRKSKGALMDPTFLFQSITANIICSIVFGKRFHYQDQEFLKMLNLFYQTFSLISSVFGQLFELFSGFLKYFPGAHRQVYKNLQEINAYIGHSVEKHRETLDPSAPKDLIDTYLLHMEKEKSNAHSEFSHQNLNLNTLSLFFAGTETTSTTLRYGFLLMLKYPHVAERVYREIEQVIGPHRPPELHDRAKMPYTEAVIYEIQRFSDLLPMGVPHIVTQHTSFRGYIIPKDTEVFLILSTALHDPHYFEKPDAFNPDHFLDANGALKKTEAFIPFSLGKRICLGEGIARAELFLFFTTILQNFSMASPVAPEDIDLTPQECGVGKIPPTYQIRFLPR

[6] = biological target: T2, P-gp; assay: in vitro transporter inhibition study; assay type: in vitro ADME
[7] = biological target: CYP 2D6 (Homo sapiens, UniProt P10635)
CYP 2D6, sequence (P10635 whole entry): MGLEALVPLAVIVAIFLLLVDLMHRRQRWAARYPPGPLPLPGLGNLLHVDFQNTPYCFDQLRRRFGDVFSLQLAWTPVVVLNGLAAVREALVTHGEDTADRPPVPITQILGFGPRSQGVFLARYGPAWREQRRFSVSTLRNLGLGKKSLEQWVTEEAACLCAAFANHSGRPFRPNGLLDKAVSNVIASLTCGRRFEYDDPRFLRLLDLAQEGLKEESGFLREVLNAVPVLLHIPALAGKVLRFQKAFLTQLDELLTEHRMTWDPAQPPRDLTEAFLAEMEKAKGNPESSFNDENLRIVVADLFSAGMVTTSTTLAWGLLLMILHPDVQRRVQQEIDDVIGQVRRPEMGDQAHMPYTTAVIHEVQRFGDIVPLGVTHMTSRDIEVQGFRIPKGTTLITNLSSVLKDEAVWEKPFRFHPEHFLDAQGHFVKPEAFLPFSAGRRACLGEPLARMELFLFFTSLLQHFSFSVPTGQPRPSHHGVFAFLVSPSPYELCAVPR

[8] = biological target: T4, CYP 1A2 (Homo sapiens, UniProt P05177)
T4 sequence (P05177 1-516): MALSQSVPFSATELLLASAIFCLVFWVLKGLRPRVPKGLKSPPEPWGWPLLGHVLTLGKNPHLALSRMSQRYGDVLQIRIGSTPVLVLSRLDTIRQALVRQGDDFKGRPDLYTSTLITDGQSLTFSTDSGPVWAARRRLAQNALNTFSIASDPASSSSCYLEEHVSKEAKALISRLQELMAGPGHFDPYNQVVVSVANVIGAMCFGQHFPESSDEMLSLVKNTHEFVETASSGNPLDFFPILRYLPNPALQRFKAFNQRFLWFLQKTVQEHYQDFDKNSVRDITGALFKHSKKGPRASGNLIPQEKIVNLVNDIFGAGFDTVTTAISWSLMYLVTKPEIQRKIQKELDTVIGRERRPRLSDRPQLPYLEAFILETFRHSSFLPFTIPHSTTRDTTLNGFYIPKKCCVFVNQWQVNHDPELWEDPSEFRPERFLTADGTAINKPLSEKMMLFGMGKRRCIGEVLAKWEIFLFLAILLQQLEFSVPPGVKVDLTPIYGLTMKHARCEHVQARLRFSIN

[9] = tested on: CYP 3A4/5

## CN(C)c1ccc2nc3ccc(=[N+](C)C)cc-3sc2c1 [Methylene blue, Methylthioninium Chloride (Methylene Blue)]
[1]
  inhibition of CYP isozyme 2C8: inhibits
[2]
  inhibition of CYP isozyme 2C19: inhibits
[3]
  inhibition of CYP isozyme 2C9: inhibits
[4]
  substrate of membrane transport protein P-gp: possible substrate
[5]
  inhibition of CYP isozyme 2B6: inhibits
[6]
  inhibitor of P-gp: weak inhibitor
[7]
  inhibition of CYP isozyme 2D6: inhibits
[8]
  inhibition of CYP isozyme 1A2: inhibits
[9]
  inhibition of CYP isozyme 3A4/5: inhibits
